Experimental data published in the supplement of paper PMC12076712.

Assays:
Assay in all cases: pIC50, kinobeads binding competition
Conditions in all cases: cell material: Jurkat lysate
UniProt P28482 = target: UniProt P28482
GAK = target: T1, GAK (UniProt O14976)
T1 sequence (whole entry): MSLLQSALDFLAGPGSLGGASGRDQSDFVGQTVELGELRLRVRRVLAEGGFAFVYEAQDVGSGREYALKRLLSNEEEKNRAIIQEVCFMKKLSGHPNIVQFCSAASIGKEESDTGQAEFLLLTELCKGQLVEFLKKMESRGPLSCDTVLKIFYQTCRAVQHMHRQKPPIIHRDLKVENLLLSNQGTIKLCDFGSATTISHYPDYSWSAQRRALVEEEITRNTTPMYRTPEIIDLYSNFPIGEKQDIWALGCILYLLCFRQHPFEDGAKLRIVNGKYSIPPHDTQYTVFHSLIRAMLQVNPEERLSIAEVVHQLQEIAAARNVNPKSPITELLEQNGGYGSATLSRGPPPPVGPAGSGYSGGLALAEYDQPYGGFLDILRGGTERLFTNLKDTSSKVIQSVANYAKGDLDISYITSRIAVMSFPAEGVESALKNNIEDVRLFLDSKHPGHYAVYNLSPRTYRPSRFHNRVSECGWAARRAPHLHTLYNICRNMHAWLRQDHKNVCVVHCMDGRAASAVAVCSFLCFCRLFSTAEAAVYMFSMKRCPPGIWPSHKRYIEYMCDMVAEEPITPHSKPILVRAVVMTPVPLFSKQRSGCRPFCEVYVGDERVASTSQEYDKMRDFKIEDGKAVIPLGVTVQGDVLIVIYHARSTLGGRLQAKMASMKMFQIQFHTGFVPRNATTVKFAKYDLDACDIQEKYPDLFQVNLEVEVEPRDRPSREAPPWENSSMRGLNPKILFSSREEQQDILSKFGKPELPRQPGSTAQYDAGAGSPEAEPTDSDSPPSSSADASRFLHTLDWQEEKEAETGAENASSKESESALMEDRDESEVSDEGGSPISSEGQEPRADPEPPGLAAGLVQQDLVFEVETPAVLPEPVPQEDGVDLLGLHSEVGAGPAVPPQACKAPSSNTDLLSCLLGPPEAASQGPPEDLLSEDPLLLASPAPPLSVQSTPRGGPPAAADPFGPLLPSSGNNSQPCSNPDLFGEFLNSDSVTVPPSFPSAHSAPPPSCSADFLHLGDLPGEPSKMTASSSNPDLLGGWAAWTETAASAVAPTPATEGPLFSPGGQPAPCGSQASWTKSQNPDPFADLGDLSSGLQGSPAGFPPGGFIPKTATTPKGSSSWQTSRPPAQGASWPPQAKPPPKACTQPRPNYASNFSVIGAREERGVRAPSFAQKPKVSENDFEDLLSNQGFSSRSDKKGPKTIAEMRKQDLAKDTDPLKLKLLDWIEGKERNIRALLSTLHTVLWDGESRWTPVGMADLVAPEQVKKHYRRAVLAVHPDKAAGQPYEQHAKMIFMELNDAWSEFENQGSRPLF

MASTL = target: T2, MASTL (UniProt Q96GX5)
T2 sequence (whole entry): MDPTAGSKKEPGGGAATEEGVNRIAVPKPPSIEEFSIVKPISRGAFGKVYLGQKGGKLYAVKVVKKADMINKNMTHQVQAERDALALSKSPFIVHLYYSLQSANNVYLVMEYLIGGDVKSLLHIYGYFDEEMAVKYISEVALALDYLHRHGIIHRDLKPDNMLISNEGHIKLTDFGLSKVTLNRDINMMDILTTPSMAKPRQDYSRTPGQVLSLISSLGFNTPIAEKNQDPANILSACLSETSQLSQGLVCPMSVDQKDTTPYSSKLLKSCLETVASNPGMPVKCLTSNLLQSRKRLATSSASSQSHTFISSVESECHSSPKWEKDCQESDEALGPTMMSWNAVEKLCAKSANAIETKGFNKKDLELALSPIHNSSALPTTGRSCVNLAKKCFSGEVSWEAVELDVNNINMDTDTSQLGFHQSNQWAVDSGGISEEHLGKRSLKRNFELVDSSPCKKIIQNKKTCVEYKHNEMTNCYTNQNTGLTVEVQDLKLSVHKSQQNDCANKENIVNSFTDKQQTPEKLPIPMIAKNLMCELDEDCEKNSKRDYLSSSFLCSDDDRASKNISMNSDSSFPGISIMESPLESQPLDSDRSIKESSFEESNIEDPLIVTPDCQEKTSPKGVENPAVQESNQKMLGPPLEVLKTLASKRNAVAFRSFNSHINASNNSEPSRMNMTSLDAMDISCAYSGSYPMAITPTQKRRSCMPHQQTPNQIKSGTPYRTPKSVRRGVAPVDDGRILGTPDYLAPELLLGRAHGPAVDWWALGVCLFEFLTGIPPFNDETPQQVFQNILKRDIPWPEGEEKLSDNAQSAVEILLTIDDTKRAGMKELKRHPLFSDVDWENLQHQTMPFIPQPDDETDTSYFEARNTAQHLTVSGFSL

UniProt Q9HCP0 = target: UniProt Q9HCP0
UniProt Q9BVS4 = target: UniProt Q9BVS4
MAST3 = MAST3 (UniProt O60307)
WEE1 = WEE1 (UniProt P30291)
PAK2 = PAK2 (UniProt Q13177)
MAPKAPK3 = MAPKAPK3 (UniProt Q16644)
TYK2 = TYK2 (UniProt P29597)

Sequence of UniProt Q9BVS4 (Q9BVS4 whole entry, looked up): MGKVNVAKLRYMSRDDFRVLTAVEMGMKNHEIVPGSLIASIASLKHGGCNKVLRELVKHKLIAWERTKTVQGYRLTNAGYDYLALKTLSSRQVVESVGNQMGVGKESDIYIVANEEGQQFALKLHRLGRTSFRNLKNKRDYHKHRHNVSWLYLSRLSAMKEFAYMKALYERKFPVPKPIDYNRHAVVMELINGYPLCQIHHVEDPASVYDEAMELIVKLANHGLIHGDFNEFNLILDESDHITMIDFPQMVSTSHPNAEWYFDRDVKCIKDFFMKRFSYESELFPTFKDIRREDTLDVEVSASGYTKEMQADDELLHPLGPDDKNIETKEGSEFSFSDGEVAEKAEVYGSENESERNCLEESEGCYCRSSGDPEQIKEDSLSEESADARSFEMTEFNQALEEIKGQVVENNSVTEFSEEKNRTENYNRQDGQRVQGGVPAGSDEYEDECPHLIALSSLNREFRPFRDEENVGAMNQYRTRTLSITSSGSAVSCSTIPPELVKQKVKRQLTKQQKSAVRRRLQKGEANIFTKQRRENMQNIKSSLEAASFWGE
Sequence of UniProt Q9HCP0 (Q9HCP0 whole entry, looked up): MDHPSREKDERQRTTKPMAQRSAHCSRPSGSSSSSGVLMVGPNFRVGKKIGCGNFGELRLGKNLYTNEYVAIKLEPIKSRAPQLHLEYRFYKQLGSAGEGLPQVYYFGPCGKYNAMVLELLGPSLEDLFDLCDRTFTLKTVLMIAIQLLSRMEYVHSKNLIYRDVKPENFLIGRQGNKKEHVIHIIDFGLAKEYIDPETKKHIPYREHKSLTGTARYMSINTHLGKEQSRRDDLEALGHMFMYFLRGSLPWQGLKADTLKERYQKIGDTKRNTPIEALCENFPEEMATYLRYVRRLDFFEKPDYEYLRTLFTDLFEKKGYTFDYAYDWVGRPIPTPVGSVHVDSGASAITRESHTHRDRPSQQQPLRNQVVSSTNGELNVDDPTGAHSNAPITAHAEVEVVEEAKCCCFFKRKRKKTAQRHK
Sequence of WEE1 (P30291 whole entry, looked up): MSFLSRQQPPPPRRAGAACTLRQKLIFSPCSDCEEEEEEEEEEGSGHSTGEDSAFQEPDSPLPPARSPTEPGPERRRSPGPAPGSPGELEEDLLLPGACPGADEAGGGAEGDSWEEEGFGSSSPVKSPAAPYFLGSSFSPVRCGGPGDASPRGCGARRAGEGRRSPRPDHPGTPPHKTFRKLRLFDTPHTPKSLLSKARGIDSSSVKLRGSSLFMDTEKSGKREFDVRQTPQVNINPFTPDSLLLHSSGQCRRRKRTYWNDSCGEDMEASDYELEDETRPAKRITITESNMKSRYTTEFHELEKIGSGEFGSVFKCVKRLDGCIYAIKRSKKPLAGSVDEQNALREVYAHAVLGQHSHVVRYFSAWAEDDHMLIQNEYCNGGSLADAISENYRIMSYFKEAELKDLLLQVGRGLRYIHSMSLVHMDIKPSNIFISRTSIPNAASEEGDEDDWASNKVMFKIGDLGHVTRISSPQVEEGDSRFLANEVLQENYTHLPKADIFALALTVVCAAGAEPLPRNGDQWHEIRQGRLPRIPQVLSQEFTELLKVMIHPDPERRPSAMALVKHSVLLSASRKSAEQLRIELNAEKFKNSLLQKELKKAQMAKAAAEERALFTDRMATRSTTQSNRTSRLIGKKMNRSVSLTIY
Sequence of MAPKAPK3 (Q16644 whole entry, looked up): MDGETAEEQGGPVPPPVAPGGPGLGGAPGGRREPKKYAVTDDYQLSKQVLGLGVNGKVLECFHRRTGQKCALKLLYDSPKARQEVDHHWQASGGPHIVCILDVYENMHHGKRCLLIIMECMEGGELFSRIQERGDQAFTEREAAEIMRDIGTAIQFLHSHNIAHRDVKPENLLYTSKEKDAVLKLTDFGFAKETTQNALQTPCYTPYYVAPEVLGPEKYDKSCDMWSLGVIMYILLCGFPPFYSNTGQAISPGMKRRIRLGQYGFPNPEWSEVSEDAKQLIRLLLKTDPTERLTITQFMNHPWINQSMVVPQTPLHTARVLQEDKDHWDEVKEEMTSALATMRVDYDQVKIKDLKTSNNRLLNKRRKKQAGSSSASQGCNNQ
Sequence of MAST3 (O60307 whole entry): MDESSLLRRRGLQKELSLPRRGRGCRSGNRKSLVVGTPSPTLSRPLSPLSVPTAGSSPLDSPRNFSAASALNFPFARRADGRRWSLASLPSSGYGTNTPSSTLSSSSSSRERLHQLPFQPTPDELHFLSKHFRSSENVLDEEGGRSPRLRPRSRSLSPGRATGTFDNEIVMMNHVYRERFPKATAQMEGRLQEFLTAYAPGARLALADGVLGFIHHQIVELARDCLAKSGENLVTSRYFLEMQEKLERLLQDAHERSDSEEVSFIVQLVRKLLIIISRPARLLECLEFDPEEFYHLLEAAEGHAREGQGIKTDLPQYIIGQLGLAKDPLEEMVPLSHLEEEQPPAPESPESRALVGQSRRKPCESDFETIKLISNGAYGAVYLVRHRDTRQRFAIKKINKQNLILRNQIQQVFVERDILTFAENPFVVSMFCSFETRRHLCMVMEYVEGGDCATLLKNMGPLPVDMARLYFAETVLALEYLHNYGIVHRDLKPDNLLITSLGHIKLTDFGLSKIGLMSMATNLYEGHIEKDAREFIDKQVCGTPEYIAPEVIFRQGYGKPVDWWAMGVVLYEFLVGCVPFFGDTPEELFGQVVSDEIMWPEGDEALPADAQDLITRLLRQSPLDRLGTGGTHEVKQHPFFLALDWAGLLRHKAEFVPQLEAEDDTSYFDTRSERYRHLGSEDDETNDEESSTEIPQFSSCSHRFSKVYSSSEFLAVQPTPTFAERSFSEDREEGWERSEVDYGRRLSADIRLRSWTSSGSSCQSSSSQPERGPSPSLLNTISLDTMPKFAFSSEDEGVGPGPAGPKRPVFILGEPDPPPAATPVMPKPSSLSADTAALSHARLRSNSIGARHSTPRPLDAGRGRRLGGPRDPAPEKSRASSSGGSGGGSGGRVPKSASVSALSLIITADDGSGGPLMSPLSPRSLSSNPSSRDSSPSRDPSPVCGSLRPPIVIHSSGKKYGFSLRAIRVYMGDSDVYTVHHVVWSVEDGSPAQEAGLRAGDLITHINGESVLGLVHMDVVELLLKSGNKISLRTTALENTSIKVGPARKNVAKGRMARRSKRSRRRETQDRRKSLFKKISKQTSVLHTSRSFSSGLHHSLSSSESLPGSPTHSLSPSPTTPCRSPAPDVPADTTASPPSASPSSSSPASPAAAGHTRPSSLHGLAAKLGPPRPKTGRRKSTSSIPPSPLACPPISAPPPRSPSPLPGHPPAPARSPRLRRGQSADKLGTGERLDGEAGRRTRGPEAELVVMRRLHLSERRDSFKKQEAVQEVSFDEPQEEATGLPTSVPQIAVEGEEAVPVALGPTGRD
Sequence of PAK2 (Q13177 whole entry): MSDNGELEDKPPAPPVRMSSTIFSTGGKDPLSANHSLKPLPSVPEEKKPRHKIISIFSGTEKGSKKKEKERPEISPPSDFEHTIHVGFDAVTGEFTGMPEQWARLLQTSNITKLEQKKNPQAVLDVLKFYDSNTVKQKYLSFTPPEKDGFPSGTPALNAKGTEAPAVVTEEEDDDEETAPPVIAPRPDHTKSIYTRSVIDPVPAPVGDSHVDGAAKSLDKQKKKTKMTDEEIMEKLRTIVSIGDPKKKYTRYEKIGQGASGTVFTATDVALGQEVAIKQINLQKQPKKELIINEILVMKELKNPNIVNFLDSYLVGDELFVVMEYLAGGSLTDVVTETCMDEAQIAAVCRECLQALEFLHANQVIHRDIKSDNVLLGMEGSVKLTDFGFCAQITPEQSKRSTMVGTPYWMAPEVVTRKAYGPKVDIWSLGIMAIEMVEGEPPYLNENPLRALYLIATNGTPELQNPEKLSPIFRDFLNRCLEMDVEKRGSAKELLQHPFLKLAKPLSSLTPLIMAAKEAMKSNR
Sequence of UniProt P28482 (P28482 whole entry): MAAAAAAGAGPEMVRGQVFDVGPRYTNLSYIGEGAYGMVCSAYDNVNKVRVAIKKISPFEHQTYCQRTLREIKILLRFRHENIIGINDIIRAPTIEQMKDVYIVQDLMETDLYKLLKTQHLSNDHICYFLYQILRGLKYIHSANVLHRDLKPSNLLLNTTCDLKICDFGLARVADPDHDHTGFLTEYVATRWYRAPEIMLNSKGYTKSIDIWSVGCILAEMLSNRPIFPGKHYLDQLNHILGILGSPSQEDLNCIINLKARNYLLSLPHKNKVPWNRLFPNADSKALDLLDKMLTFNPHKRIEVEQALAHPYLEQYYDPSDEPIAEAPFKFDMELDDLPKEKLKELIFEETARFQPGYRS

CCc1cnn2c(NCc3ccc[n+]([O-])c3)cc(N3CCCC[C@H]3CCO)nc12 [dinaciclib]
pIC50 (UniProt P28482): < 4.52 | pIC50 (GAK): < 4.52 | pIC50 (MASTL): < 4.52 | pIC50 (UniProt Q9HCP0): < 4.52 | pIC50 (UniProt Q9BVS4): < 4.52 | pIC50 (MAST3): < 4.52 | pIC50 (WEE1): < 4.52 | pIC50 (PAK2): < 4.52 | pIC50 (MAPKAPK3): 6.8 | pIC50 (TYK2): < 4.52
